Experimental data reported in ChEMBL document CHEMBL4177599, “The antitubercular activity of various nitro(triazole/imidazole)-based compounds” (Bioorg Med Chem, 2017).
In brackets after ≈: the same amount, converted by molar mass.

Experiments:
Type in all cases: functional, organism-based
[1] = system: Mycobacterium tuberculosis; test: Antitubercular activity against fluoroquinolone-resistant Mycobacterium tuberculosis H37Rv harboring gyrB D94N mutant after 5 days
[2] = system: Mycobacterium tuberculosis; test: Antitubercular activity against rifampicin-resistant Mycobacterium tuberculosis H37Rv RIF-R2 ATCC 35828 after 5 days; conditions: H37Rv RIF-R2 ATCC 35828, 120 h
[3] = system: Mycobacterium tuberculosis; test: Antitubercular activity against isoniazid-resistant Mycobacterium tuberculosis H37Rv INH-R1 harboring katG Y155 mutant after 5 days
[4] = system: Mycobacterium tuberculosis; test: Antitubercular activity against rifampicin-resistant Mycobacterium tuberculosis H37Rv RIF-R1 harboring rpoB S522L mutant after 5 days
[5] = system: Mycobacterium tuberculosis; test: Antitubercular activity against isoniazid-resistant Mycobacterium tuberculosis INH-R2 ATCC 35822 after 5 days; conditions: INH-R2 ATCC 35822, 120 h

Row | SMILES | IC50 [1] [µM] | IC90 [1] [µM] | MIC [1] [µM] | IC50 [2] [µM] | IC90 [2] [µM] | MIC [2] [µM] | IC50 [3] [µM] | IC90 [3] [µM] | MIC [3] [µM] | IC50 [4] [µM] | IC90 [4] [µM] | MIC [4] [µM] | IC50 [5] [µM] | IC90 [5] [µM] | MIC [5] [µM]
1 | O=C(Cn1cnc([N+](=O)[O-])n1)Nc1ccc(Cc2ccccc2)cc1 | 28 | 32 | 30 (≈ 10.1 µg/mL) | 34 | 44 | 48 (≈ 16.2 µg/mL) | 33 | 47 | 50 (≈ 16.9 µg/mL) | 27 | 40 | 44 (≈ 14.8 µg/mL) | 29 | 37 | 31 (≈ 10.5 µg/mL)
2 | O=C(CCn1cnc([N+](=O)[O-])n1)Nc1ccc(Oc2ccc(F)cc2)cc1 | 26 | 48 | 46 (≈ 17.1 µg/mL) | 21 | 53 | 58 (≈ 21.5 µg/mL) | 29 | 65 | 50 (≈ 18.6 µg/mL) | 16 | 23 | 25 (≈ 9.28 µg/mL) | 19 | 37 | 36 (≈ 13.4 µg/mL)
3 | O=C(CCn1cnc([N+](=O)[O-])n1)Nc1ccc(Oc2ccccc2)cc1 | 32 | 68 | 62 (≈ 21.9 µg/mL) | 29 | 40 | 48 (≈ 17 µg/mL) | 38 | 71 | 59 (≈ 20.8 µg/mL) | 28 | 42 | 48 (≈ 17 µg/mL) | 26 | 53 | 56 (≈ 19.8 µg/mL)
4 | O=C(Cn1cnc([N+](=O)[O-])n1)Nc1ccc(Oc2ccc(Cl)cc2)cc1 | 56 | 84 | 94 (≈ 35.1 µg/mL) | 55 | 150 | 100 (≈ 37.4 µg/mL) | 54 | 76 | 91 (≈ 34 µg/mL) | 58 | 91 | 98 (≈ 36.6 µg/mL) | 36 | 54 | 55 (≈ 20.6 µg/mL)
5 | O=C(NCCCCn1cnc([N+](=O)[O-])n1)c1nc2ccccc2s1 |  |  | 8.2 (≈ 2.84 µg/mL) |  |  | 7.9 (≈ 2.74 µg/mL) |  |  | 11.1 (≈ 3.84 µg/mL) |  |  | 8.9 (≈ 3.08 µg/mL) |  |  | 7.9 (≈ 2.74 µg/mL)
6 | O=C(Cn1cnc([N+](=O)[O-])n1)N1CCN(Cc2ccc(Cl)c(Cl)c2)CC1 | 7.4 | 11 | 12 (≈ 4.79 µg/mL) | 9.4 | 12 | 12 (≈ 4.79 µg/mL) | 9 | 14 | 14 (≈ 5.59 µg/mL) | 4.9 | 8.3 | 7.7 (≈ 3.07 µg/mL) | 7.3 | 12 | 12 (≈ 4.79 µg/mL)
7 | C[C@H]1COc2c(N3CCN(C)CC3)c(F)cc3c(=O)c(C(=O)O)cn1c23.C[C@H]1COc2c(N3CCN(C)CC3)c(F)cc3c(=O)c(C(=O)O)cn1c23.O [LEVOFLOXACIN] |  |  | 14 |  |  | 1.4 |  |  | 1.1 |  |  | 0.85 |  |  | 1.3
8 | O=C(CCn1cnc([N+](=O)[O-])n1)Nc1cccc(OCc2ccccc2)c1 | 3.4 | 6.2 | 6 (≈ 2.2 µg/mL) | 4.1 | 5.2 | 5.6 (≈ 2.06 µg/mL) | 4.5 | 5.9 | 6.2 (≈ 2.28 µg/mL) | 2.2 | 3.7 | 3.6 (≈ 1.32 µg/mL) | 3.2 | 5.6 | 5.7 (≈ 2.09 µg/mL)
9 | O=C(CCn1cnc([N+](=O)[O-])n1)Nc1cccc(-c2ccccc2)c1 | 6.8 | 14 | 13 (≈ 4.39 µg/mL) | 8.1 | 11 | 12 (≈ 4.05 µg/mL) | 8.5 | 15 | 15 (≈ 5.06 µg/mL) | 4.1 | 8 | 7.7 (≈ 2.6 µg/mL) | 6.2 | 11 | 10 (≈ 3.37 µg/mL)
10 | O=C(Cn1ccnc1[N+](=O)[O-])Nc1ccc(Oc2ccccc2)cc1 | 74 | > 200 | >200 | 110 | > 200 | > 200 | 75 | 140 | >200 | 84 | > 200 | >200 | 80 | > 200 | > 200
11 | O=C(Cn1cnc([N+](=O)[O-])n1)N1CCN(Cc2ccc(C(F)(F)F)cc2)CC1 | 27 | 31 | 28 (≈ 11.2 µg/mL) | 32 | 41 | 45 (≈ 17.9 µg/mL) | 32 | 44 | 48 (≈ 19.1 µg/mL) | 21 | 32 | 31 (≈ 12.3 µg/mL) | 26 | 32 | 28 (≈ 11.2 µg/mL)
12 | O=C(NCCCCn1cnc([N+](=O)[O-])n1)c1sc2ccccc2c1Cl |  |  | 7.1 (≈ 2.7 µg/mL) |  |  | 6.4 (≈ 2.43 µg/mL) |  |  | 7.5 (≈ 2.85 µg/mL) |  |  | 7.9 (≈ 3 µg/mL) |  |  | 7.3 (≈ 2.77 µg/mL)
13 | O=C(Cn1ccnc1[N+](=O)[O-])Nc1ccc(Oc2ccc(Cl)cc2)cc1 | > 100 | > 100 | >200 | 56 | > 100 | > 200 | > 100 | > 100 | >200 | 48 | > 100 | >200 | > 100 | > 100 | > 200
14 | O=C(Cn1cnc([N+](=O)[O-])n1)Nc1nc(-c2ccc(F)c(F)c2)cs1 | 31 | 44 | 48 (≈ 17.6 µg/mL) | 30 | 38 | 45 (≈ 16.5 µg/mL) | 32 | 47 | 50 (≈ 18.3 µg/mL) | 25 | 40 | 39 (≈ 14.3 µg/mL) | 31 | 45 | 49 (≈ 17.9 µg/mL)
15 | O=C(Cn1cnc([N+](=O)[O-])n1)Nc1ccc(N2CCCCC2)cc1 | 32 | 47 | 50 (≈ 16.5 µg/mL) | 36 | 49 | 51 (≈ 16.8 µg/mL) | 34 | 53 | 54 (≈ 17.8 µg/mL) | 25 | 41 | 36 (≈ 11.9 µg/mL) | 30 | 44 | 48 (≈ 15.9 µg/mL)
16 | CC(O)(Cn1cnc([N+](=O)[O-])n1)c1ccc(-c2ccc(C#N)cc2)cc1 (stereo not given) |  |  | >200 |  |  | > 200 |  |  | >200 |  |  | >200 |  |  | > 200
17 | O=C(Cn1cnc([N+](=O)[O-])n1)N1CCN(C(c2ccccc2)c2ccc(Cl)cc2)CC1 (stereo not given) | 46 | 78 | 72 (≈ 31.7 µg/mL) | 47 | 68 | 71 (≈ 31.3 µg/mL) | 48 | 82 | 79 (≈ 34.8 µg/mL) | 27 | 32 | 42 (≈ 18.5 µg/mL) | 29 | 35 | 45 (≈ 19.8 µg/mL)
18 | CO[C@H]1/C=C/O[C@@]2(C)Oc3c(C)c(O)c4c(O)c(c(/C=N/N5CCN(C)CC5)c(O)c4c3C2=O)NC(=O)/C(C)=C\C=C\[C@H](C)[C@H](O)[C@@H](C)[C@@H](O)[C@@H](C)[C@H](OC(C)=O)[C@@H]1C [RIFAMPIN] |  |  | >0.04 |  |  | > 50 |  |  | 0.012 (≈ 0.00988 µg/mL) |  |  | 7.2 (≈ 5.93 µg/mL) |  |  | 0.011 (≈ 0.00905 µg/mL)
19 | O=C(Cn1ccnc1[N+](=O)[O-])Nc1ccc(Oc2ccc(F)cc2)cc1 | 75 | 190 | 200 (≈ 71.3 µg/mL) | 78 | > 200 | > 200 | 65 | > 100 | >200 | 46 | > 100 | >200 | 70 | > 100 | > 200
20 | O=C(CCn1cnc([N+](=O)[O-])n1)Nc1ccc(Oc2ccc(Cl)cc2)cc1 | 24 | 42 | 40 (≈ 15.5 µg/mL) | 17 | 30 | 29 (≈ 11.2 µg/mL) | 25 | 53 | 46 (≈ 17.8 µg/mL) | 15 | 22 | 24 (≈ 9.31 µg/mL) | 18 | 32 | 31 (≈ 12 µg/mL)
21 | O=C(Cn1cnc([N+](=O)[O-])n1)Nc1ccc(Oc2ccccc2)cc1 | 70 | 130 | 200 (≈ 67.9 µg/mL) | 55 | 170 | 116 (≈ 39.4 µg/mL) | 73 | 130 | 125 (≈ 42.4 µg/mL) | 70 | 150 | 133 (≈ 45.1 µg/mL) | 66 | 110 | > 200
22 | NNC(=O)c1ccncc1 [ISONIAZID] |  |  | 0.35 (≈ 0.048 µg/mL) |  |  | 0.67 (≈ 0.0919 µg/mL) |  |  | >200 |  |  | 0.31 (≈ 0.0425 µg/mL) |  |  | > 200
23 | O=C(Cn1cnc([N+](=O)[O-])n1)Nc1cccc(-c2ccccc2)c1 | 29 | 39 | 28 (≈ 9.05 µg/mL) | 29 | 33 | 33 (≈ 10.7 µg/mL) | 31 | 43 | 48 (≈ 15.5 µg/mL) | 24 | 40 | 35 (≈ 11.3 µg/mL) | 26 | 31 | 28 (≈ 9.05 µg/mL)
